Assay results reported in patent US5457092A, “Methods of promoting bone growth in mammals comprising administration of modified parathyroid hormone” (Gesellschaft fur Biotechnologische Forschung mbH (GBF), priority 1987, dated 1995).
pEC50: −log10 of the molar value.

Assays:
[1] = tested on: chondrocytes from sterna of 16-day-old embryonic chicks; experiment: Stimulation of DNA synthesis in chondrocytes by PTH fragments (Table 1); type: cell-based, chick; conditions: for [^3 H]thymidine incorporation: 4 h, control 324 ± 18; for E/C: stimulated / non-induced control cells
Procedure: Chondrocytes were isolated from sterna of 16-day-old embryonic chicks according to J. Biol. Chem., 261 (1986) 7997-8001 (10; Yasui et al.) with some modifications. Collagenase was dissolved in Hanks' balanced salt solution (0.4 mM Na2 HPO4, 140 mN NaCl, 5.3 mM KCl, 0.4 mM MgSO4, 1.3 mM CaCl2, 0.4 mM KH2 PO4, 0.5 mM MglC2, 5 mM glucose, 0.05% gentamicin) at a concentration of 286 units/ml. Sterna were treated repeatedly for 30 min with collagenase solution at 37° C. Cells first released by this procedure were discarded because of their very poor responsiveness towards PTH. The collagenase treatment was subsequently repeated leading to a highly homogenous cell population of chondrocytes. The cells obtained by a second collagenase treatment were collected by centrifugation (1000 rpm, 10 min), washed twice with medium (Dulbecco's modified Eagle's medium, GIBCO, supplemented with NaHCO3 (45 mM), glutamine (2 mM), penicillin G/streptomycin (65 mg/1 and 100 mg/l, respectively), Hepes (10 mM, pH 7.2), and FCS (10% v/v) and counted.
The DNA synthesis rate was assayed in monolayer culture by the incorporation of ]^3 H]thymidine into perchloric acid-precipitable material. […] After 17 h, the medium was replaced by 200 μl of serum-free medium. After 4 days, chondrocytes were incubated for 4 h with the appropriate effector and 1μ Ci of [^3 H]thymidine. Subsequently, medium was removed and the cells were washed twice with 200 μl of phosphate-buffered saline (PBS: 137 mM NaCl, 2.7 mN KCl, 1.5 mM KH2 PO4, 0.8 mN Na2 HPO4, pH 7.0). Then cells were lysed by 100 μl of 2% (v/v) Nonidet P- 40 and 2% (w/v) sodium dodecyl sulfate treatment and the perchloric acid-insoluble material was precipitated by adding an equal volume of ice-cold 2% (w/v) perchloric acid in the presence of 1% herring sperm DNA as carrier. After storage for 10 min at -20° C., the precipitated material of each well was transferred to glass fiber filters with a Scatron--As semiautomatic cell harvester. Filters were dried at 80° C. for 20 min, transferred into scintillation vials, and 2 ml of scintillation mixture (scintillator 299; United Technology Pachard) were added. Radioactivity of the samples was determined with a β counter (Minimax; United Technology Pachard). Each test consisted of 5 up to 10 identically treated wells and was repeated at least twice with freshly prepared chondrocytes.
The incorporation of [^3 H]thymidine by non-induced control cells and by stimulated cells is shown by C and E, respectively. The results shown mean ±S.E. for n parallel cell cultures.

[2] = tested on: chondrocytes isolated from the sterna of 16-day-old chicken embryos; experiment: Incorporation of 3H-methylthymidine into total DNA of chicken embryo chondrocytes (Examples 1-3); type: cell-based
Text: FIG. 1 is a graph showing the stimulation of chondrocyte DNA synthesis by the addition of PTH and PTH fragments; expressed as the ratio of the rate of incorporation of ^3 H-methylthymidine into the total DNA of the induced cultures to that of the untreated control cultures.
FIGS. 2-6 are graphs showing the dosage/effect curves for the mitogenic activity of PTH and PTH fragments;
FIG. 1: In order to determine the incorporation of ^3 H-methylthymidine into total DNA the cells were cultivated on microtiter plates in M199 medium at a concentration of foetal calf serum (FCS) of less than 0.5% (by volume). The cell density of the chondrocytes that reacted to the addition of PTH with an increase in the incorporation of ^3 H-methylthymidine into the total DNA was from 1250 to 6000 cells/microtitre well (diameter 6 mm) at the time of plating-out. […] The incorporation of ^3 H-methylthymidine into the total DNA was determined as follows. After removing the radioactive medium, the adherent growing chondrocytes were washed with PBS and lysed in the microtitre wells. The total DNA was then precipitated under acid conditions at low temperature and transferred onto filter papers using a semi-automatic harvesting device. The rate of incorporation into total DNA could then be determined; cf. FIG. 1. […]

## hPTH(25-39): PTH fragment 25-39, human source (RKKLQDVHNFVALGA; Parathyroid hormone; UniProt P01270 56-70, looked up, fragment)
[1]; 6.1 × 10^-4 mol/l
  [^3 H]thymidine incorporation: 542 ± 71 cpm
  E/C: 1.67
[1]; 6.1 × 10^-5 mol/l
  [^3 H]thymidine incorporation: 655 ± 147 cpm
  E/C: 2.02
[1]; 6.1 × 10^-6 mol/l
  [^3 H]thymidine incorporation: 517 ± 65 cpm
  E/C: 1.60
[1]; 6.1 × 10^-7 mol/l
  [^3 H]thymidine incorporation: 418 ± 41 cpm
  E/C: 1.29
[1]; 6.1 × 10^-8 mol/l
  [^3 H]thymidine incorporation: 452 ± 56 cpm
  E/C: 1.40

## hPTH(28-48): mid-regional PTH fragment 28-48, human source (LQDVHNFVALGAPLAPRDAGS; Parathyroid hormone; UniProt P01270 59-79, looked up, fragment)
[2]; 3H-methylthymidine incorporation into total DNA, read-out: concentration for semi-maximum stimulation
  pEC50: 6.46
[2]; ratio induced / untreated control cultures, depending on concentration
  increase in the incorporation of 3H-methylthymidine into total DNA by a factor: 6
